Measurements: article PMC9669616, “The recommended dosage regimen for caspofungin in patients with higher body weight or hypoalbuminaemia will result in low exposure: Five years of data based on a population pharmacokinetic model and Monte-Carlo simulations” (Frontiers in Pharmacology, 2022)
In brackets after ≈: the same amount, converted by molar mass. Read-outs that look alike come from different tables or passages of the source.

Key:
C. glabrata = conditions: ref Li et al., 2013; cited from earlier work
Text: (§1) The first goal of this study was to determine whether the contemporary dosage regimens for caspofungin can achieve the target PK/PD index against Candida isolates in all patients and especially in ICU patients. […] At present, the relationship between caspofungin Cmax and toxicity remains poorly clarified ([Kim et al., 2022]). In this study, we only used the fAUC/MIC as caspofungin PK/PD target for we could get th ...

C. parapsilosis = conditions: ref Li et al., 2013; cited from earlier work
Text: as §1

C. albicans = conditions: ref Li et al., 2013; cited from earlier work
Text: as §1

[1] = healthy subjects; ref Stone et al., 2002; cited from earlier work
Text: Van den Elst et al. found the caspofungin exposure in ICU patients was low compared with that in healthy volunteers and other (non)critically ill patients ([van der Elst et al., 2017]). Many factors could influence the caspo ...

[2] = cited from earlier work
Text: Safety also needs to be considered when increasing the caspofungin exposure, because any harm to the patient should be minimal.

[3] = general population pharmacokinetic (PPK) model, all patients; format: in vivo, human; design: AUC: concentration or dose not given beside the values; conditions: for AUC / clearance: general PPK model, mean ± SD (range)
Experimental: The patients for the general PPK model came from a single-center, and the study was conducted from June 2014 to June 2019 at the First Affiliated Hospital of Xi’an Jiaotong University. Patients who had been diagnosed with confirmed or probable candidiasis and been treated with caspofungin were included in the study. The identification of infection was according to the IFIs Cooperative Group and the National Institute of Allergy and Infectious Diseases Mycoses Study Group criteria ([De Pauw et al., 2008]). All patients were divided into four groups (ICU patients, SOT patients, HEMT patients, and other patients from respiratory department). Caspofungin was administered intravenously over 1 h. Most of the patients received the standard dosage regimen of 70/50 mg. Patients with hepatic insufficiency (Child-Pugh B) received a reduced dosage regimen of 70/35 mg and patients with body weight (WT) > 75 kg received an increased dosage regimen of 70/70 mg. The study protocol was approved by the institutional review board of the teaching hospital (No.XJTU1AF2017LSK-28). All subjects signed the informed consent before any screening item being performed. History of hypersensitivity, severe intolerance to caspofungin, other constituents change resulted from caspofungin, age <18 years and pregnancies were excluded in the study.
Factors which may influence the PK parameters of caspofungin were collected for the patients of the general PPK model from the teaching hospital. The factors included demographic factors (sex, age and WT); medical characteristics [carrier mediated transportation (CMT), surgical operation (SOP), baseline disease, organ support therapy]; laboratory data [red blood cells, hemoglobin, hematocrit, white blood cell, lymphocyte, neutrophile, platelets, alanine aminotransferase, aspartate transaminase, alkaline phosphatase, gamma-glutamyl transpeptidase, total bilirubin, albumin (ALB), blood urea nitrogen, uric acid, serum creatinine acid, creatinine clearance rate]; concomitant medications (immunosuppressants, glucocorticoid, antimicrobial agents and antivirals) and other related factors. Because we could not obtain all values of ICU patients for the seven literature studies, only factors which may have a great influence on the PK of caspofungin, such as sex, age, WT, dosage and method of administration, ALB concentrations and whether concomitant continuous renal replacement therapy (CRRT) of ICU patients from the teaching hospital and other seven studies were collected for the construction of the ICU-subgroup PPK model. The selection criteria were based on the results obtained from previous studies of factors influencing the caspofungin plasma concentration ([Spriet et al., 2009]; [Spriet et al., 2011]; [Weiler et al., 2013]; [Muilwijk et al., 2014]; [Sinnollareddy et al., 2015]; [Roger et al., 2017]; [van der Elst et al., 2017]). […] Combined with the clinical situation, the ALB and WT were converted into dichotomous variables according to whether the ALB <35 g/L or ≥35 g/L and whether the WT < 70 kg or ≥70 kg, respectively.
We collected the pooled data of caspofungin plasma samples from patients at the teaching hospital who received caspofungin prevention or treatment therapies from June 2014 to June 2019. Caspofungin plasma C min samples were collected at interval windows of 22–24 h post-dose, while other caspofungin plasma samples were collected at interval windows of 0–12 h and 12–22 h post-dose. The caspofungin plasma concentrations from the other seven studies of ICU patients—which included both dense sampling and sparse sampling—were directly collected from the relevant published papers, and all related caspofungin plasma concentrations were collected ([Spriet et al., 2009]; [Spriet et al., 2011]; [Weiler et al., 2013]; [Muilwijk et al., 2014]; [Sinnollareddy et al., 2015]; [Roger et al., 2017]; [van der Elst et al., 2017]). […]

ALB = conditions: cited from earlier work
Text: The final general and ICU-subgroup PPK models of caspofungin were used for the simulation study to evaluate the degree of exposure. A MCS method published before ([Pfaller et al., 2006]) was used for analyzing the probability of target attainment (PTA) and cumulative fraction of response (CFR) following various caspofungin dosage regimens in all patients and ICU patients. […] Caspofungin was extensively bound to ALB (97%) ([Stone ...

[4] = cited from earlier work; remark: listed apart in the source
Text: Van den Elst et al. found the caspofungin exposure in ICU patients was low compared with that in healthy volunteers and other (non)critically ill patients ([van der Elst et al., 2017]).

[5] = all patients n = 299, final model
[6] = human, plasma, iv, ICU patients of the teaching hospital
[7] = human, plasma, iv, all patients n = 299
[8] = human, plasma, iv, hematopathy patients
[9] = human, plasma, iv, other patients
[10] = human, plasma, iv, transplant (SOT) patients

Compound: CC[C@H](C)C[C@H](C)CCCCCCCCC(=O)N[C@H]1C[C@@H](O)[C@@H](NCCN)NC(=O)[C@@H]2[C@@H](O)CCN2C(=O)[C@H]([C@H](O)CCN)NC(=O)[C@H]([C@H](O)[C@@H](O)c2ccc(O)cc2)NC(=O)[C@@H]2C[C@@H](O)CN2C(=O)[C@H]([C@@H](C)O)NC1=O [caspofungin]
- MIC, mean (C. glabrata): 0.25 µg/mL (≈ 0.229 µM)
- MIC, range (C. glabrata): 0.047 to 0.38 µg/mL
- MIC, mean (C. parapsilosis): 1.5 µg/mL (≈ 1.37 µM)
- MIC, range (C. parapsilosis): 0.38 to 2 µg/mL
- MIC, mean (C. albicans): 0.19 µg/mL (≈ 0.174 µM)
- MIC, range (C. albicans): 0.032 to 0.38 µg/mL
- plasma trough concentration (C min), range [1]: 1120 to 1780 ng/mL
- tolerability ([2]; 150 mg daily for a median of 24.5 days, ref Cornely et al., 2011): well tolerated without dose-limiting toxicity
- tolerability ([2]; patients with invasive candidiasis, 150 mg daily, mean duration 14.2 days, ref Betts et al., 2009): well tolerated
- θ1, typical population value of CL [3, 5]: 0.32 L/h
- θ4, influence of ALB (<35 g/L) on V [3, 5]: 0.49
- θ6, influence of WT (≥70 kg) on V [3, 5]: 0.24
- θ4, influence of ALB (<35 g/L) on V ([3]; all patients, bootstrap, lower boundary of 95% CI): 0.25
- θ4, influence of ALB (<35 g/L) on V ([3]; all patients, bootstrap, upper boundary of 95% CI): 0.73
- AUC [3, 6]: 101 µg·h/mL
- clearance [3, 6]: 7.83 mL/min
- AUC [3, 7]: 126 µg·h/mL
- clearance [3, 7]: 7 mL/min
- AUC [3, 8]: 118 µg·h/mL
- clearance [3, 8]: 7.5 mL/min
- AUC [3, 9]: 120 µg·h/mL
- clearance [3, 9]: 6.83 mL/min
- AUC [3, 10]: 136 µg·h/mL
- clearance [3, 10]: 6.67 mL/min
- Vd ([3]; human, plasma, iv, all patients n = 299, final model, read-out: θ2, typical population value of V): 13.3 L
- bound to ALB (ALB; ref Stone et al., 2004): 97%
- protein binding value (ALB; used to calculate free drug concentrations in the simulation, ref Andes et al., 2010): 97%
- CL, typical value ([4]; ICU patients, day 1, ref Borsuk-De Moor et al., 2020): 0.563 L/h
- CL, typical value ([4]; ICU patients, day 2, ref Borsuk-De Moor et al., 2020): 0.737 L/h
- CL, typical value ([4]; ICU patients, day 3, ref Borsuk-De Moor et al., 2020): 1.01 L/h
- decrease in caspofungin exposure ([4]; ICU patients, increasing clearance with subsequent doses, ref Borsuk-De Moor et al., 2020): > 20%
- CL ([4]; ICU patients, ref Martial et al., 2016): 0.55 L/h
- CL ([4]; critically-ill Chinese patients, ref Li et al., 2021): 0.32 L/h
- CL ([4]; general patients, ref Wurthwein et al., 2012): 0.46 L/h
- CL ([4]; general patients, ref Wurthwein et al., 2013): 0.40 L/h
